# pIC50: −log10 of the molar value. Like-named read-outs stand apart in the source and are kept apart here.
# How the values were obtained:
# [1] = biological target: T1, human D2L receptor (Homo sapiens, UniProt P14416); assay: Radioligand competition binding and kinetics, CHO-K1 membranes
# T1 construct: purchased Euroscreen; host or cells: CHO-K1
# Protocol: (§1) For kinetics of radioligand competitive binding, serial dilutions were performed from master solution in 100% DMSO to obtain intermediate concentrations 200-fold higher than the concentrations to be tested. Each test sample was diluted 100-fold in the assay buffer and dispensed into the test plate.
# D2L Radioligand Binding Assay
# Assay buffer: 25 mM HEPES (pH 7.4), 5 mM MgCl2, 1 mM CaCl2, BSA protease free 0.5% Washing buffer: 25 mM HEPES (pH 7.4), 5 mM MgCl2, 1 mM CaCl2 Membrane: recombinant CHO-K1-D2L membranes thawed on ice and diluted in assay buffer (2 μg/well)
# Ligand: Risperidone (Tocris Bioscience, 2865)
# Radioligand: [^3H]-Spiperone (TRK818, diluted in assay buffer for a final concentration of 3 nM) Filter plate: GF/B Unifilter plate (Perkin Elmer, 6005177) presoaked in 0.5% PEI for 2 hours at RT.
# (§2) Determination of the Kon constant. Radioligand association kinetics on each receptor were performed by adding in the wells of a 96 well plate 50 μL of radioligand and 50 μL of membrane extracts. The samples were incubated for the times reported in Table 3 below at a temperature optimized for each receptor and filtered over a filter plate. After washing the filters 5 times with 0.5 mL of ice-cold washing buffer, 50 μL of Microscint 20 (Packard) were added to the filters and the plates were incubated 15 min on an orbital shaker and then counted for 1 min/well. This allowed determination of the kobs for each radioligand. Association kinetics were performed at 5 different radioligand concentrations optimized for each receptor (see Table 3 below) to determine 5 different kobs. The different kobs were then plotted against the [radioligand] and the K. was calculated using the following equation: kon=(kobs−koff)[radioligand].
# (§3) Determination of the Koff constant. Radioligand dissociation kinetics on each receptor were performed by adding in the wells of a 96 well plate 45 μL of radioligand and 45 μL of membrane extracts. The samples were incubated as reported in Table 4 below at a temperature optimized for each receptor until binding equilibrium was reached as determined by the association kinetics experiment. Then, 100 μL of cold competitor (reference ligand) were added at a 200 fold excess (final concentration) for the times reported in Table 4 at the optimized temperature. The samples were then filtered over a filter plate. After washing the filters 5 times with 0.5 mL of ice-cold washing buffer, 50 μL of Microscint 20 (Packard) were added to the filters and the plates were incubated 15 min on an orbital shaker and then counted for 1 min/well. This allowed determination of the koff for each radioligand.
# (§4) Determination of IC50 and Ki constant for each test compound. Radioligand competition binding on each receptor were performed by adding in the wells of a 96 well plate […] of test compound at increasing concentration as reported in Table 5 below, 25 μL of radioligand and 25 μL of membrane extracts. The samples were incubated for 60 min (or 4 hours for a second experiment on 5-HT2B receptors) at a temperature optimized for each receptor and then filtered over a filter plate. After washing the filters 5 times with 0.5 mL of ice-cold washing buffer, 50 μL of Microscint 20 (Packard) were added to the filters and the plates were incubated 15 min on an orbital shaker and then counted for 1 min/well. The test compounds were tested in duplicate at the nanomolar concentrations reported below in Table 5.
# Determination of kon and koff constants for each test compound. Each compound was first assessed in a pilot experiment to evaluate its effect on the kinetic binding of each receptor-radioligand pair. These pilot experiments were performed at on compound concentration and were composed of 10 time-points measurements in duplicate (2, 5, 10, 20, 30, 45, 60, 90, 120 and 150 minutes). […]
# [2] = biological target: T2, human 5-HT1D receptor (Homo sapiens, UniProt P28221); assay: as above
# T2 construct: purchased Euroscreen; host or cells: CHO-K1
# Protocol: as §1
# 5-HT1D Radioligand Binding Assay
# Assay buffer: 50 mM Tris (pH 7.4), 4 mM CaCl2, 0.1% ascorbic acid
# Washing buffer: 50 mM Tris (pH 7.4)
# Membrane: recombinant CHO-K1-5-HT1D membranes thawed on ice and diluted in assay buffer (10 μg/well)
# Ligand: 5-HT (Sigma, H-9523)
# Radioligand: [^3H]-CT (Perkin Elmer, TRK1038, diluted in assay buffer for a final concentration of 0.5 nM) Filter plate: GF/B Unifilter plate (Perkin Elmer, 6005177) presoaked in 0.5% PEI for 2 hours at RT.
# as §2, §3, §4
# Determination of kon and koff constants for each test compound. Each compound was first assessed in a pilot experiment to evaluate its effect on the kinetic binding of each receptor-radioligand pair. These pilot experiments were performed at on compound concentration and were composed of 10 time-points measurements in duplicate (2, 5, 10, 20, 30, 45, 60, 90, 120 and 150 minutes).
# T2 sequence (P28221 whole entry): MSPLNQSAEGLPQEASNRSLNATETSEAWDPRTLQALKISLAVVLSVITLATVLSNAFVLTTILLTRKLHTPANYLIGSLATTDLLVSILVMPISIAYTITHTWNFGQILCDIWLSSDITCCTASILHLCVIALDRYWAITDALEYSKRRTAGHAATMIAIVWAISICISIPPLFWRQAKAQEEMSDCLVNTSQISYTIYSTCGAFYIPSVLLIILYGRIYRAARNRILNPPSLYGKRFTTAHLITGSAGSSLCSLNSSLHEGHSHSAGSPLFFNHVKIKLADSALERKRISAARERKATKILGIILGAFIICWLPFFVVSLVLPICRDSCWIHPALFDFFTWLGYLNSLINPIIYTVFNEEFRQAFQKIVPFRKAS
# T1 sequence (P14416 whole entry): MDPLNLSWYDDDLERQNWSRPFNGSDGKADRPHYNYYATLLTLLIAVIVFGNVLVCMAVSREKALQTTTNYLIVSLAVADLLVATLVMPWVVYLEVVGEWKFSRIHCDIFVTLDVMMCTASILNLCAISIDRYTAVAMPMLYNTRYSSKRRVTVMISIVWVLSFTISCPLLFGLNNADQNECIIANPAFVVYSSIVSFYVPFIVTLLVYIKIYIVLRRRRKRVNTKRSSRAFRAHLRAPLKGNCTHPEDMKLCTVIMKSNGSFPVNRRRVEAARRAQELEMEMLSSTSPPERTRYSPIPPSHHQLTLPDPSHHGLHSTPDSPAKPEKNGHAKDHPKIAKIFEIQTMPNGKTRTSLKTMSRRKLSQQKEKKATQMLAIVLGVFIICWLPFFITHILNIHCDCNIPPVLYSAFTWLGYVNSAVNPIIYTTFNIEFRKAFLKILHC
compound,measurement,setting,value
"CN1C[C@H](C(=O)N[C@]2(C)O[C@@]3(O)[C@@H]4CCCN4C(=O)[C@H](Cc4ccccc4)N3C2=O)C[C@@H]2c3cccc4[nH]cc(c34)C[C@H]21 [DHE, Dihydroergotamine]",pIC50,[1],6.64
same,Avg Dissociation half-life,[1]; D2L,14.4 min
same,koff,[1]; D2L,0.000792 s⁻¹
same,pIC50,[2],9.19
same,Avg Dissociation half-life,[2]; 5-HT1D,76.8 min
same,koff,[2]; read-out: Avg Koff,0.00015 s⁻¹
"CN1C[C@H](C(=O)N[C@]2(C)O[C@@]3(O)[C@@H]4CCC(O)N4C(=O)[C@H](Cc4ccccc4)N3C2=O)C[C@@H]2c3cccc4[nH]cc(c34)C[C@H]21 (stereo partly drawn) [8′-OH DHE, 8′-Hydroxy-Dihydroergotamine]",Avg Dissociation half-life,[1]; D2L,9 min
same,Avg Koff,[1]; D2L,0.00127 s⁻¹
same,pIC50,"[1]; D2L, [3H]-Spiperone, read-out: IC50 from binding assay",6.53
same,Avg Dissociation half-life,[2]; 5-HT1D,66 min
same,Avg Koff,[2]; 5-HT1D,0.000175 s⁻¹
same,pIC50,"[2]; 5-HT1D, [3H]-CT, read-out: IC50 from binding assay",9.10

# From patent US20150306096A1, “8'-HYDROXY-DIHYDROERGOTAMINE COMPOUNDS AND COMPOSITIONS” (MAP Pharmaceuticals, Inc., priority 2012, published 2015)
